The numbers were not newly measured in patent publication US7834030B2, “Phenyl-[1,2,4]-oxadiazol-5-one derivatives, pharmaceutical compositions and therapeutic use thereof” (Sanofi-Aventis, priority 2005, dated 2010), which cites them from elsewhere.

Like-named read-outs stand apart in the source and are kept apart here.

The conditions of data set [1]: rhesus monkeys; cited from earlier work.
The conditions of data set [2]: healthy volunteers, two weeks clinical trials; cited from earlier work.
For data set [3] the following is noted: cynomolgus monkeys; cited from earlier work.
For data set [4] the following is noted: obese, insulin resistant rhesus monkeys; cited from earlier work.
The conditions of data set [5]: diabetic animal model; cited from earlier work.

As for `CCCc1c(OCCCSc2nnc(SCC(=O)O)s2)ccc(C(C)=O)c1O` [YM-16638], the plasma lipids entry in data set [1] was “significantly lowers”; in data set [2] it was “acts in a similar manner”; in data set [3] it was “significantly lowers”.
In the case of `Cc1cc(SCc2sc(-c3ccc(C(F)(F)F)cc3)nc2C)ccc1OCC(=O)O` [GW501516], in data set [4], the HDL-cholesterol result was “raises”, the insulin levels entry is “decreases”, the “plasma LDL-cholesterol” value is listed as “decreases” and the triglycerides result is “decreases”.
As for `CCCc1c(OCCCOc2ccc(OCC(=O)O)cc2)ccc(C(C)=O)c1O` [Example L-165041], the plasma cholesterol entry in data set [5] is “raises plasma cholesterol”.
